The values that follow come from patent US20170232031A1, “Inhibitors of Zika Virus” (Riboscience LLC, priority 2016, published 2017).

Structures are written as SMILES. Read-outs that look alike come from different tables or passages of the source.

Data set [1] deals with T1, human DNA polymerase α (Homo sapiens, UniProt P09884).
T1 sequence (P09884 1-1462): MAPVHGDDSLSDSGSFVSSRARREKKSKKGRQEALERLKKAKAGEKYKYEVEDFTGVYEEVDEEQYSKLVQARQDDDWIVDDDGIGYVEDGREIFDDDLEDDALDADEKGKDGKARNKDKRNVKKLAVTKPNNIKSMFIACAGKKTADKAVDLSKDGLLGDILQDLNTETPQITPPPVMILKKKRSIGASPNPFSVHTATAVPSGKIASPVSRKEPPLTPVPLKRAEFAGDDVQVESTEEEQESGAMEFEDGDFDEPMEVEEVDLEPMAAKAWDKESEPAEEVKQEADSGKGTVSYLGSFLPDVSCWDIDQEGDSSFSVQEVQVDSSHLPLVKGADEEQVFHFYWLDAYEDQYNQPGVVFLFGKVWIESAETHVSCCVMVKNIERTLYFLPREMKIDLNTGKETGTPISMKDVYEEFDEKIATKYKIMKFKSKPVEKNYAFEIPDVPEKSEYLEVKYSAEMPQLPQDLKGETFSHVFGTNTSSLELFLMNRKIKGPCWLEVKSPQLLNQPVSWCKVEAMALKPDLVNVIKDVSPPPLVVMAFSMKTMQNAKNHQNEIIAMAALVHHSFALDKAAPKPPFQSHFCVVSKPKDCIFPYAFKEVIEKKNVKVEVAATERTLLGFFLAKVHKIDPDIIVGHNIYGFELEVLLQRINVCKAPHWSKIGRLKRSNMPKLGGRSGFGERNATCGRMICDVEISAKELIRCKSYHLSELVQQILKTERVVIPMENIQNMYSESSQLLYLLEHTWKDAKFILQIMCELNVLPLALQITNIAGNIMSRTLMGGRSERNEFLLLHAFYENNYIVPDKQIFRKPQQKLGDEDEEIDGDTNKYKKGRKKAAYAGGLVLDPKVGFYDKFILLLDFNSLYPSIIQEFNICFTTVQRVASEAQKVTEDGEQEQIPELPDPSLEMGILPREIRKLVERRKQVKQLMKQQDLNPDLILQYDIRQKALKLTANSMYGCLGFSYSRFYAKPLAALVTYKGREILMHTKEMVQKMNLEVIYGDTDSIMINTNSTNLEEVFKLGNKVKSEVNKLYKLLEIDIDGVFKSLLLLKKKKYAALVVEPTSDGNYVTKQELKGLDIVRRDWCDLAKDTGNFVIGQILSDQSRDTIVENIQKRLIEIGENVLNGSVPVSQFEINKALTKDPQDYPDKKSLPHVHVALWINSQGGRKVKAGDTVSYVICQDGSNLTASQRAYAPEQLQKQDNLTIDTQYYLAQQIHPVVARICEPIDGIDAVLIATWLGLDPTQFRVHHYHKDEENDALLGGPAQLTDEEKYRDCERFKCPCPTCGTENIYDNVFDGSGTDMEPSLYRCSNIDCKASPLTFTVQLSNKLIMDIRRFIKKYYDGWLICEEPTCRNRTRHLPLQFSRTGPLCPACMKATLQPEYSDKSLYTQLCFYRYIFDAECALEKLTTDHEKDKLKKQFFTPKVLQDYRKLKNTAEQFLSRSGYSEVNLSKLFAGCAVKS
Put plainly: Inhibition of human DNA polymerase α. The class given is biochemical.

Data set [2] concerns the target influenza polymerase (Influenza A virus, UniProt P03431). Put plainly: Activity against influenza polymerase. Type of data set: biochemical.
In data set [3] the test system is RSV polymerase. Nature of the data set: Activity against RSV polymerase. The class given is biochemical.
The target of data set [4] is human DNA polymerase β (Homo sapiens, UniProt P06746). Nature of the data set: Inhibition of human DNA polymerase β. Type of data set: biochemical.
The target in data set [5] is Dengue virus polymerase (Dengue virus type 2, UniProt P29990). Put plainly: Inhibition of Dengue virus polymerase. Type of data set: biochemical.
Data set [6] has as its target T2, human RNA polymerase I (Homo sapiens, UniProt O95602+Q9H9Y6).
T2 construct: endogenous in cells; host or cells: HeLa
Put plainly: Human RNA polymerase I activity in cell extracts. Type of data set: biochemical.

Data set [7] addresses T3, human RNA polymerase II (Homo sapiens, UniProt P24928+P30876).
T3 construct: endogenous in cells; host or cells: HeLa
Put plainly: Human RNA polymerase II activity in cell extracts. The class given is biochemical.

Data set [8] addresses HCV polymerase (Hepatitis C virus genotype 1a, UniProt P27958). Nature of the data set: Inhibition of HCV polymerase. Type of data set: biochemical.
Data set [9] has as its target T4, human RNA polymerase III (Homo sapiens, UniProt O14802+Q9NW08).
T4 construct: endogenous in cells; host or cells: HeLa
Put plainly: Human RNA polymerase III activity in cell extracts. The class given is biochemical.

The target in data set [10] is T5, mitochondrial DNA polymerase pol γ (Homo sapiens, UniProt P54098).
T5 sequence (P54098 1-1239): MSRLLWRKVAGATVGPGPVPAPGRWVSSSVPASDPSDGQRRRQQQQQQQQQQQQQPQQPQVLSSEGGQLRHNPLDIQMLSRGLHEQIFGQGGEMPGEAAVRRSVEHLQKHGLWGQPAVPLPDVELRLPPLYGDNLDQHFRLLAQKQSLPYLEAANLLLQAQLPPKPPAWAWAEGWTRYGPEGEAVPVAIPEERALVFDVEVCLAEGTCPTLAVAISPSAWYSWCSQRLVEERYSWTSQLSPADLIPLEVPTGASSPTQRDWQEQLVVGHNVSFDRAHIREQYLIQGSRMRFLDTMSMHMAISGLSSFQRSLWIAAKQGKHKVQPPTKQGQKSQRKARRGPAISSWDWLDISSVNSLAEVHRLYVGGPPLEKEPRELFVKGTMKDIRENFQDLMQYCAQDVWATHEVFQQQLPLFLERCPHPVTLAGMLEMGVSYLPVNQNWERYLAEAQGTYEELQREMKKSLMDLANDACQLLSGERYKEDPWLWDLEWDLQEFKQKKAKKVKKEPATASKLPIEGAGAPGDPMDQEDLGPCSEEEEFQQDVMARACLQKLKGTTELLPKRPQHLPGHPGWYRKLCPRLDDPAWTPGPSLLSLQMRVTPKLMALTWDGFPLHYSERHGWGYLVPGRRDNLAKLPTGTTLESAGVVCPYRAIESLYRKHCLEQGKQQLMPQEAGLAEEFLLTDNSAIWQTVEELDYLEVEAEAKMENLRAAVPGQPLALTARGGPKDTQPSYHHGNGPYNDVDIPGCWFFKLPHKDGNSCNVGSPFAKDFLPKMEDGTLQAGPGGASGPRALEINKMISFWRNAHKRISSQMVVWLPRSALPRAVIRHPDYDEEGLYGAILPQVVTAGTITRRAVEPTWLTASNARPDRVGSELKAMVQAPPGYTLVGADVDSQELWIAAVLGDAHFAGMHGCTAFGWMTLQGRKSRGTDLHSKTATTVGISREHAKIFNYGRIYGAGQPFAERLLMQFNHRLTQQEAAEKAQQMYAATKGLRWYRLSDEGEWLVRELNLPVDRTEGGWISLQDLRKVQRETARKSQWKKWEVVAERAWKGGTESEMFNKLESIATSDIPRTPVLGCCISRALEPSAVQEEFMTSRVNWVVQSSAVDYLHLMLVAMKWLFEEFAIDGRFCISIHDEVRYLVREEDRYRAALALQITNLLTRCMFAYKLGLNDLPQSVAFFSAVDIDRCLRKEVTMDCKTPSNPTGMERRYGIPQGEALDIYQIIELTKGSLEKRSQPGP
Put plainly: Inhibition of mitochondrial DNA polymerase pol γ. The class given is biochemical. As to conditions: read-out: DNA pol γ IC50.

A short description of data set [11]: Cytotoxicity (CC50) alongside HCV GT1a replicon assay. The class given is cell-based. As to conditions: HCV GT1a (H77) replicon cells; replicon genotype 1a (H77).
Data set [12] has as its target T3, human RNA polymerase II. Put plainly: RNA polymerase II specific reporter gene assay in HeLa cells. The class given is cell-based. As to conditions: 10 or 100 μM (highest soluble concentrations). Background: In a reporter assay the amount or activity of a reporter protein is the signal.
Data set [13] addresses T4, human RNA polymerase III. Put plainly: RNA polymerase III specific reporter gene assay in HeLa cells. The class given is cell-based. To be noted: 10 or 100 μM (highest soluble concentrations).
For data set [14], the system named is ZIKV strain MR766 (Genbank LC002520). Put plainly: Antiviral activity against ZIKV replication in cells. The class given is cell-based, Zika virus. Here is the method: (§1) The human hepatoma cell line Huh-7, are cultured in DMEM without phenol-red (Cellgro Mediatech, Cat #10-013-CV containing 4.5 g/l glucose, L-glutamine & sodium pyruvate). The medium is further supplemented with 10% (v/v) FBS (ATLAS Cat # F-0500-A, lot#850114A) and 1% (vlv) penicillin/streptomycin (Cellgro Mediatech #30-022-CI). Cells are maintained at 37° C. in a humidified 5% CO2 atmosphere. Zika virus representative strain titers are measured on BHK-21 cells, using a standard plaque assay procedure. For the determination of EC50 of nucleoside in the antiviral assay, Huh-7 cells are plated in white 96-well plates in MEM media supplemented with 10% FBS and 1% penicillin/streptomycin. After incubation for 24 h, the cells are infected at a multiplicity of infection (MOI) of 0.5 for 2 h at 37° C. Ten three-fold dilutions of compounds are prepared in the same media supplemented with 1% DMSO. After the 2 h adsorption phase, the virus is aspirated off and diluted compound is added to four wells each. Huh-7 cells are plated as described above and exposed to the same concentration range of compounds. Untreated cells are carried along as a control. After a 3-day incubation at 37° C., the cell viability is determined using Cell-titer Glo™ reagent (Promega, Madison, Wis.) that is added to each well and incubated for 5 min. Plates are analyzed using a Thermo Luminoskan plate reader (Waltham, Mass.).

Data set [15] can be described thus: Cytotoxicity (CC50) alongside HCV GT1b replicon assay. To be noted: HCV GT1b (Con1) replicon cells. For orientation: A replicon is a self-replicating genome or part of one, used to study replication in cells.
The test system of data set [16] is HCV replicon of genotype 1b (Con1). Nature of the data set: HCV replicon genotype 1b antiviral activity. The class given is cell-based. As to conditions: Hepatitis C virus; replicon genotype 1b (Con1); read-out: HCV GT1b EC50.
Data set [17] can be described thus: Cell viability (CC50) alongside ZIKV antiviral assay, Cell-titer Glo. To be noted: human, Huh-7 cells. Type of data set: cell-based. Here is the method:
as §1

The target of data set [18] is T2, human RNA polymerase I. Nature of the data set: RNA polymerase I specific reporter gene assay in HeLa cells. The class given is cell-based. To be noted: 10 or 100 μM (highest soluble concentrations).
Data set [19] in a line: Solubility in cell culture medium / aqueous media. To be noted: plasma or biological fluid.
Data set [20] relates to HCV replicon of genotype 1a (H77). Nature of the data set: HCV replicon genotype 1a antiviral activity. Type of data set: cell-based. To be noted: Hepatitis C virus; replicon genotype 1a (H77); read-out: HCV GT1a EC50.

For `[N-]=[N+]=N[C@]1(COP(=O)(O)OP(=O)(O)OP(=O)(O)O)O[C@@H](n2ccc(=O)[nH]c2=O)[C@H](O)[C@@H]1O` [Compound 4AUTP, 4′-azido-uridine triphosphate], the IC50 in [1], in data set [4], in [6], in data set [7], in [9] and in [10] was above 1000 µM in each case. Further, the “activity against influenza polymerase” value in [2] is recorded as “not active”. For the same compound, the “activity against RSV polymerase” value in data set [3] was “not active”. In addition, the “inhibition of Dengue virus polymerase” value in data set [5] is recorded as “inhibition”. In addition, the “inhibition of HCV polymerase” value in [8] is recorded as “inhibition”.
`C[C@H](NP(=O)(OC[C@@]1(N=[N+]=[N-])O[C@@H](n2ccc(=O)[nH]c2=O)[C@H](O)[C@@H]1O)Oc1cccc2ccccc12)C(=O)OCc1ccccc1` (stereo partly drawn) [Compound I-1, benzyl ((((2R,3S,4R,5R)-2-azido-5-(2,4-dioxo-3,4-dihydropyrimidin-1(2H)-yl)-3,4-dihydroxytetrahydrofuran-2-yl)methoxy)(naphthalen-1-yloxy)phosphoryl)-L-alaninate]: the CC50 in [11] and in data set [15] was above 10 µM each time. The “inhibition of human RNA polymerase II activity (reporter gene)” value in [12] was “did not inhibit”. In addition, the “inhibition of human RNA polymerase III activity (reporter gene)” value in data set [13] is on record as “did not inhibit”. In addition, the half-maximal effective concentration (EC50) in [14] (Zika virus, ZIKV strain MR766, human Huh-7 or mouse MEF cells) was 0.74 µM; in [16], 0.33 µM; in data set [20], 0.42 µM. Further, the “antiviral inhibition potency (EC50), in words” value in data set [14] (summary statement) is “submicromolar”. Also, the CC50 at 3 day in data set [17] (cytotoxicity column of the ZIKV assay, read-out: ZIKV CC50) was above 10 µM; in [17] (summary statement, cytotoxicity in cell culture, read-out: Huh-7 cell CC50) it was above 100 µM. Further, in [18], the “inhibition of human RNA polymerase I activity (reporter gene)” value was “did not inhibit”. Further, the solubility in data set [19] was at most 10 µM.

The term IC50 denotes the concentration that inhibits the measured activity by half. Broadly, the CC50 is the concentration giving 50% cytotoxicity. In general, EC50 refers to the concentration giving half of the maximal effect. As usually defined, the solubility is how much of the substance goes into solution per volume. A higher solubility goes with a readily soluble substance.
